Each compound was assayed on MCF7 cells (assay: MCF7 cell activity test (CCK8 proliferation inhibition)). Details: Homo sapiens, MCF7, 144 h, 6 days incubation.
Type: cell-based
Description: Experimental Example 1: MCF7 cell activity test
Cell culture: MCF7 cells (culture conditions: MEM medium+20% FBS+1% essential amino acids++1 mg/100 ml insulin, 37° C., 5% CO2). Plating: The cells subcultured into the logarithmic growth phase were collected and transferred into a centrifuge tube, and centrifuged at 800 rpm for 5 min. The cells were resuspended in complete medium and counted. The cells were diluted and adjusted to a final concentration of 30,000 cells/mL. The cells were then seeded into a 96-well plate with 100 μL per well and incubated in an incubator overnight. Administration: Each group of drug solutions was added into the 96-well plate, 100 μL per well, n=3 for each drug concentration. Meanwhile, negative wells (n=6) and blank wells (n=3) were set up. The 96-well plate was incubated in the incubator for further 6 days. CCK8 reagent was added to the 96-well plate, 20 μL per well, and then the plate was placed in the incubator for further 4 h. The absorbance of the solution was measured at a wavelength of 450 nm using an enzyme reader. The proliferation inhibition rate was calculated and the half inhibitory concentration IC50 value was calculated using Graphpad Prism 6.0 software.

Row | SMILES | IC50
1 | Cn1nc(N2CCC(=O)NC2=O)c2cc(F)c(C3(O)CCN(C[C@@H]4CCCC[C@H]4CN4CCN(c5ccc([C@@H]6c7ccc(O)cc7CC[C@@H]6c6ccccc6)cc5)CC4)CC3)cc21 [VI-23, 1-(5-fluoro-6-(4-hydroxy-1-(((1R, 2R)-2-((4-(4-((1R, 2S)-6-hydroxy-2-phenyl-1,2,3,4-tetrahydronaphthalen-1-yl)phenyl)piperazin-1-yl)methyl)cyclohexyl)methyl)piperidin-4-yl)-1-methyl-1H-indazol-3-yl)dihydropyrimidine-2,4 (1H, 3H)-dione] | < 25 nM
2 | Cc1nn(C2CCC(=O)NC2=O)c2cc(F)c(C3CCN(C[C@@H]4CCCC[C@H]4CN4CCN(c5ccc([C@@H]6c7ccc(O)cc7CC[C@@H]6c6ccccc6)cc5)CC4)CC3)cc12 (stereo partly drawn) [VI-9] | < 100 nM
3 | Cn1nc(N2CCC(=O)NC2=O)c2cc(F)c(C3CC4CCC(C3)N4C[C@@H]3CCCC[C@H]3CN3CCN(c4ccc([C@@H]5c6ccc(O)cc6CC[C@@H]5c5ccccc5)cc4)CC3)cc21 (stereo partly drawn) [VI-17] | < 25 nM
4 | Cn1nc(N2CCC(=O)NC2=O)c2cc(F)c(N3CC4(CCN(C[C@@H]5CCCC[C@H]5CN5CCN(c6ccc([C@@H]7c8ccc(O)cc8CC[C@@H]7c7ccccc7)cc6)CC5)CC4)C3)cc21 [VI-27] | < 25 nM
5 | O=C1CCC(n2cnc3cc(C4CCN(C[C@@H]5CCCC[C@H]5CN5CCN(c6ccc([C@@H]7c8ccc(O)cc8CC[C@@H]7c7ccccc7)cc6)CC5)CC4)ccc32)C(=O)N1 (stereo partly drawn) [Compound V-7] | < 100 nM
6 | C[C@@H]1CC(c2cc3c(cc2F)c(N2CCC(=O)NC2=O)nn3C)C[C@H](C)N1C[C@@H]1CCCC[C@H]1CN1CCN(c2ccc([C@@H]3c4ccc(O)cc4CC[C@@H]3c3ccccc3)cc2)CC1 (stereo partly drawn) [VI-22] | < 50 nM
7 | Cn1nc(N2CCC(=O)NC2=O)c2cc(F)c(C3CCN(C4CCN(C[C@@H]5CCCC[C@H]5CN5CCN(c6ccc([C@@H]7c8ccc(O)cc8CC[C@@H]7c7ccccc7)cc6)CC5)CC4)CC3)cc21 [VI-19] | < 50 nM
8 | Cn1nc(N2CCC(=O)NC2=O)c2cc(F)c(C3CCN(C[C@H]4CCCC[C@@H]4CN4CCN(c5ccc([C@@H]6c7ccc(O)cc7CC[C@@H]6c6ccccc6)cc5)CC4)CC3(F)F)cc21 (stereo in doubt) [IV-12] | < 100 nM

The compounds below were run on MCF-7 tumor (assay: In vivo tumor inhibitory activity test (MCF-7 tumor, estradiol-supplemented mice)). Details: 5 mg/kg/d (I.V.), Day 19, relative tumor volume inhibition rate, P < 0.05.
Description: Experimental Example 3: In Vivo Tumor Inhibitory Activity Test
MCF-7 cell culture (culture conditions: MEM medium+20% FBS+1% essential amino acids ++1 mg/100 ml insulin, 37° C., 5% CO2). The cells subcultured into the logarithmic growth phase were collected and transferred into a centrifuge tube, and centrifuged at 800 rpm for 5 min. On the day of inoculation, the cell density was adjusted to 3*10^7 cells/mL. […]
Grouped administration: When the average tumor volume reached 80-150 mm^3, the animals were randomly grouped according to tumor volume, with the coefficient of variation (CV) of tumor volumes not exceeding ⅓ of the mean volume. […] The body weight of the mice was measured before administration, and the administration was based on the body weight on that day. Experimental observation and data collection: After cell inoculation, the effect of the tumor on the normal behavior of the animals was routinely monitored every week. […] After the start of administration, the mice were weighed and dosed daily, and tumor volume was measured twice a week. The tumor volume was calculated as follows: tumor volume (mm^3)=0.52×tumor long diameter (mm) x tumor short diameter (mm) 2. […]
[formula] […] All data were analyzed using GraphPad Prism 6.0.

Row | SMILES | TGI (Day 19)
9 | Cn1nc(N2CCC(=O)NC2=O)c2cc(F)c(C3(O)CCN(C[C@@H]4CCCC[C@H]4CN4CCN(c5ccc([C@@H]6c7ccc(O)cc7CC[C@@H]6c6ccccc6)cc5)CC4)CC3)cc21 [VI-23, 1-(5-fluoro-6-(4-hydroxy-1-(((1R, 2R)-2-((4-(4-((1R, 2S)-6-hydroxy-2-phenyl-1,2,3,4-tetrahydronaphthalen-1-yl)phenyl)piperazin-1-yl)methyl)cyclohexyl)methyl)piperidin-4-yl)-1-methyl-1H-indazol-3-yl)dihydropyrimidine-2,4 (1H, 3H)-dione] | 77.9%
